Values joined by “and” are separate entries in the source; they are usually repeats but may differ in a detail not shown here. Equal values may be shown once. Read-outs that look alike come from different tables or passages of the source.
What was measured:
Format in all cases: biochemical
CLK2 = biological target: T1, CLK2 (Homo sapiens, UniProt P49760); assay: Radiometric protein kinase assay (33PanQinase Activity Assay), CLK2; conditions: read-out: IC50 on CLK2 (most potent CLK2 inhibitors)
T1 construct: GST-fusion or His-tag (not specified per kinase); purchased ProQinase GmbH; host or cells: Sf9 insect cells or E. coli (not specified per kinase)
T1 sequence (P49760 whole entry, the tested form may be a part): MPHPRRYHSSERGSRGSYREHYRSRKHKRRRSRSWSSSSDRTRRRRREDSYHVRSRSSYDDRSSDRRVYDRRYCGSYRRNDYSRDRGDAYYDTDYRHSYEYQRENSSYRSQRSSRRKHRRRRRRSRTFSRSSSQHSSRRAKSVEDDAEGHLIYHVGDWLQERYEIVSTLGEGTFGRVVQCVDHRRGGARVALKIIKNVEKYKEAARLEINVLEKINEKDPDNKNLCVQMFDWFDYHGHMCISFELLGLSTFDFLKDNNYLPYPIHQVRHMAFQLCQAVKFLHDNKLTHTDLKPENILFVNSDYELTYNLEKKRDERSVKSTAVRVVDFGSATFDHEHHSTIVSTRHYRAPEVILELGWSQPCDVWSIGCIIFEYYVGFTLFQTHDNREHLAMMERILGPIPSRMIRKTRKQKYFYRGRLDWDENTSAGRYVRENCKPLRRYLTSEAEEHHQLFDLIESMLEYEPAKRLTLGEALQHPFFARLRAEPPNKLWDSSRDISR
Method: (§1) Assays were performed by ProQinase GmbH (Engesserstr. 4, D-79108 Freiburg, Germany. www.proqinase.com). The IC50 profile of all compounds was determined using 12 protein kinases (CDK2/cyclin E, CK1ε, CLK1, 2, 3, 4, DYRK1A, 1B, 2, 3, 4, GSK3β).
(§2) The compounds were provided as […] in 100% DMSO. Prior to testing, the 1 μM stock solutions were subjected to a serial, semi-logarithmic dilution using 100% DMSO as a solvent. […] In the process, 90 μl H2O were added to each well of each compound dilution plate. To minimize potential precipitation, the H2O was added to each plate only a few minutes before the transfer of the compound solutions into the assay plates. The plate was shaken thoroughly, resulting in a compound dilution plate/10% DMSO.
(§3) For the assays (see below), 5 μL solution from each well of the compound dilution plates/10% DMSO were transferred into the assay plates. The final volume of the assay was 50 μL. All compounds were tested at 10 final assay concentrations in the range from 10 μM to 30 nM. The final DMSO concentration in the reaction cocktails was 1% in all cases.
(§4) All protein kinases provided by ProQinase were expressed in Sf9 insect cells or in E. coli as recombinant GST-fusion proteins or His-tagged proteins, either as full-length or enzymatically active fragments. All kinases were produced from human cDNAs and purified by either GSH-affinity chromatography or immobilized metal. Affinity tags were removed from a number of kinases during purification. The purity of the protein kinases was examined by SDS-PAGE/Coomassie staining, the identity was checked by mass spectroscopy.
(§5) A radiometric protein kinase assay (33PanQinase® Activity Assay) was used for measuring the kinase activity of the 12 protein kinases. All kinase assays were performed in 96-well FlashPlates™ from PerkinElmer (Boston, MA, USA) in a 50 μL reaction volume. The reaction cocktail was pipetted in four steps in the following order: • 25 μL of assay buffer (standard buffer/[γ-^33P]-ATP), • 10 μL of ATP solution (in H2O), • 5 μL of test compound (in 10% DMSO), • 10 μL of enzyme/substrate mixture.
(§6) The reaction cocktails were incubated at 30° C. for 60 minutes. The reaction was stopped with 50 μL of 2% (v/v) H3PO4, plates were aspirated and washed two times with 200 μL 0.9% (w/v) NaCl. Incorporation of ^33Pi was determined with a microplate scintillation counter (Microbeta, Wallac). The IC50 values for all compounds were calculated from the dose response curves
(§7) As a parameter for assay quality, the Z′-factor (Zhang et al., J. Biomol. Screen. 2: 67-73, 1999) for the low and high controls of each assay plate (n=8) was used. ProQinase's criterion for repetition of an assay plate is a Z′-factor below 0.4 (Iversen et al., J. Biomol. Screen. 3: 247-252, 2006).

DYRK1A = biological target: T2, DYRK1A (Homo sapiens, UniProt Q13627); assay: Radiometric protein kinase assay (33PanQinase Activity Assay), DYRK1A; conditions: for Selectivity Class DYRK1A vs. CLK1: ratio of IC50 on CLK1 over IC50 on DYRK1A; for Selectivity Class DYRK1A vs. DYRK1B: ratio of IC50 on DYRK1B over IC50 on DYRK1A
T2 construct: GST-fusion or His-tag (not specified per kinase); purchased ProQinase GmbH; host or cells: Sf9 insect cells or E. coli (not specified per kinase)
How it was run: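 Recombinant human kinase, expressed in Sf9 or E. coli, in a radiometric [γ-33P]-ATP assay at 30 °C for 60 min. Compounds tested at 10 concentrations from 10 μM to 30 nM, 1% DMSO final. 33Pi incorporation measured by scintillation counting; IC50 from dose-response curves.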

DYRK3 = biological target: T3, DYRK3 (Homo sapiens, UniProt O43781); assay: Radiometric protein kinase assay (33PanQinase Activity Assay), DYRK3; conditions: read-out: IC50 on DYRK3 (most potent DYRK3 inhibitors)
T3 construct: GST-fusion or His-tag (not specified per kinase); purchased ProQinase GmbH; host or cells: Sf9 insect cells or E. coli (not specified per kinase)
T3 sequence (O43781 1-588): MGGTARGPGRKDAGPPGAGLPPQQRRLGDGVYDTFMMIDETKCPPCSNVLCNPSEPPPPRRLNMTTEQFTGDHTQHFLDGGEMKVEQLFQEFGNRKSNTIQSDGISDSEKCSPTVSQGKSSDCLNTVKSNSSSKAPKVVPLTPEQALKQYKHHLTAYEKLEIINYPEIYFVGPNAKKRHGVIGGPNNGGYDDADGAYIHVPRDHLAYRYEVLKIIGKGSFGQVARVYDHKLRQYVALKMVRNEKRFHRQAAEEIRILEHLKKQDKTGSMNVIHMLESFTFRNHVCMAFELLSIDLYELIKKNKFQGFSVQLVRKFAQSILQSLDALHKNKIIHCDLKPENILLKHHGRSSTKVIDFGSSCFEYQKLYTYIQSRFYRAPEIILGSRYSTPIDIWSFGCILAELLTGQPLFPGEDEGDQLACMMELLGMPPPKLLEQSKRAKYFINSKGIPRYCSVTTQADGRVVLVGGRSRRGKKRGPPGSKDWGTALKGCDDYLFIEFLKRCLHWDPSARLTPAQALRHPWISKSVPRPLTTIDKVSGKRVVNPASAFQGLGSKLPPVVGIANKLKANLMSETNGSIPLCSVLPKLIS
Method: as §1, §2, §3, §4, §5, §6, §7

CLK1 = biological target: T4, CLK1 (Homo sapiens, UniProt P49759); assay: Radiometric protein kinase assay (33PanQinase Activity Assay), CLK1; conditions: read-out: Potency Class CLK1
T4 construct: GST-fusion or His-tag (not specified per kinase); purchased ProQinase GmbH; host or cells: Sf9 insect cells or E. coli (not specified per kinase)
T4 sequence (P49759 whole entry, the tested form may be a part): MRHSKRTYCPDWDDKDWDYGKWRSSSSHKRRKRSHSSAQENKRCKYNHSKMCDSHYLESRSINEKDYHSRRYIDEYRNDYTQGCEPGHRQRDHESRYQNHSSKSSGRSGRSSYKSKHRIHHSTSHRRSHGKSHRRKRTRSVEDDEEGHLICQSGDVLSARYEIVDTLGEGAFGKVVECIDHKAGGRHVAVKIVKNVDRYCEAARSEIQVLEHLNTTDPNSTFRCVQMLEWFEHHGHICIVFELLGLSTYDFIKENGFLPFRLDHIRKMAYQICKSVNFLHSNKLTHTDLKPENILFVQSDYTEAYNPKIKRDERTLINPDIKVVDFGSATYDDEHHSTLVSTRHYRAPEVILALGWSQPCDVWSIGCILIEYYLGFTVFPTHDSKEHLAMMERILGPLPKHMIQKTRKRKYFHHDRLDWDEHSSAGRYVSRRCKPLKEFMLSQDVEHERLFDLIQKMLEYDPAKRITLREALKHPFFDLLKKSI
How it was run: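 Human kinase (Sf9- or E. coli-expressed, tagged, purified) + substrate + [γ-33P]-ATP; cpd 10 μM→30 nM, 10 pts, 1% DMSO; 30 °C, 60 min; H3PO4 stop; scintillation count; IC50 from curve.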

DYRK1B = biological target: T5, DYRK1B (Homo sapiens, UniProt Q9Y463); assay: Radiometric protein kinase assay (33PanQinase Activity Assay), DYRK1B; conditions: read-out: IC50 on DYRK1B (most potent DYRK1B inhibitors)
T5 construct: GST-fusion or His-tag (not specified per kinase); purchased ProQinase GmbH; host or cells: Sf9 insect cells or E. coli (not specified per kinase)
T5 sequence (Q9Y463 whole entry, the tested form may be a part): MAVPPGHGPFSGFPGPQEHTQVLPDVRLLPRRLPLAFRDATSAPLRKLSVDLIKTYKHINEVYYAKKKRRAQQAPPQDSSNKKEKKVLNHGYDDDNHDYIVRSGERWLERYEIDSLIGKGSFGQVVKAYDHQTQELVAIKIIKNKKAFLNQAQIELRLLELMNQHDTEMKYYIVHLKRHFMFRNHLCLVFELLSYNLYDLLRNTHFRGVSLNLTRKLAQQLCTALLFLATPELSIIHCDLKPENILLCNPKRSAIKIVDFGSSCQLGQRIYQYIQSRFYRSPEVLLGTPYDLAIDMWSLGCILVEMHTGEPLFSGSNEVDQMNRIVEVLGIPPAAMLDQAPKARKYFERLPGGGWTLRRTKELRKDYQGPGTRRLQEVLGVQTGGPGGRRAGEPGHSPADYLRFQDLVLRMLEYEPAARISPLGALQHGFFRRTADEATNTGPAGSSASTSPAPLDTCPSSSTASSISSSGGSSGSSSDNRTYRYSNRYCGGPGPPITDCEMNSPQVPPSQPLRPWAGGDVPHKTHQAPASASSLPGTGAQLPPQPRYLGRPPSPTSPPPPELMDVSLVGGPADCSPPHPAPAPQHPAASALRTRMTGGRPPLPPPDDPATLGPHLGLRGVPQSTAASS
Method: as §1, §2, §3, §4, §5, §6, §7

CLK4 = biological target: T6, CLK4 (Homo sapiens, UniProt Q9HAZ1); assay: Radiometric protein kinase assay (33PanQinase Activity Assay), CLK4; conditions: read-out: IC50 on CLK4 (most potent CLK4 inhibitors)
T6 construct: GST-fusion or His-tag (not specified per kinase); purchased ProQinase GmbH; host or cells: Sf9 insect cells or E. coli (not specified per kinase)
T6 sequence (Q9HAZ1 whole entry, the tested form may be a part): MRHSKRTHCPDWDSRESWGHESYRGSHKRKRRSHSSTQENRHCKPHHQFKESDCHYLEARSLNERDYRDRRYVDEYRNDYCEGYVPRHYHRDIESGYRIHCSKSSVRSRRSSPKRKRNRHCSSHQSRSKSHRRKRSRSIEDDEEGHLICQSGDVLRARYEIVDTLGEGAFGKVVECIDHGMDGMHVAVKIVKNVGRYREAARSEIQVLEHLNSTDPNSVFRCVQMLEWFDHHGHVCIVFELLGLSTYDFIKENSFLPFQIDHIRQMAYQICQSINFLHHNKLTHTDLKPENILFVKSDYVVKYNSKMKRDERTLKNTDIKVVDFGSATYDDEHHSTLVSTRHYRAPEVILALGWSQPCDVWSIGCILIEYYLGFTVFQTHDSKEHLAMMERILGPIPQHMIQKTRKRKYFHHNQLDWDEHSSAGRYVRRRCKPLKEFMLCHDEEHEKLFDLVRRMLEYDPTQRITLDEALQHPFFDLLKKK
Method: as §1, §2, §3, §4, §5, §6, §7

DYRK2 = biological target: T7, DYRK2 (Homo sapiens, UniProt Q92630); assay: Radiometric protein kinase assay (33PanQinase Activity Assay), DYRK2; conditions: read-out: IC50 on DYRK2 (most potent DYRK2 inhibitors)
T7 construct: GST-fusion or His-tag (not specified per kinase); purchased ProQinase GmbH; host or cells: Sf9 insect cells or E. coli (not specified per kinase)
T7 sequence (Q92630 1-601): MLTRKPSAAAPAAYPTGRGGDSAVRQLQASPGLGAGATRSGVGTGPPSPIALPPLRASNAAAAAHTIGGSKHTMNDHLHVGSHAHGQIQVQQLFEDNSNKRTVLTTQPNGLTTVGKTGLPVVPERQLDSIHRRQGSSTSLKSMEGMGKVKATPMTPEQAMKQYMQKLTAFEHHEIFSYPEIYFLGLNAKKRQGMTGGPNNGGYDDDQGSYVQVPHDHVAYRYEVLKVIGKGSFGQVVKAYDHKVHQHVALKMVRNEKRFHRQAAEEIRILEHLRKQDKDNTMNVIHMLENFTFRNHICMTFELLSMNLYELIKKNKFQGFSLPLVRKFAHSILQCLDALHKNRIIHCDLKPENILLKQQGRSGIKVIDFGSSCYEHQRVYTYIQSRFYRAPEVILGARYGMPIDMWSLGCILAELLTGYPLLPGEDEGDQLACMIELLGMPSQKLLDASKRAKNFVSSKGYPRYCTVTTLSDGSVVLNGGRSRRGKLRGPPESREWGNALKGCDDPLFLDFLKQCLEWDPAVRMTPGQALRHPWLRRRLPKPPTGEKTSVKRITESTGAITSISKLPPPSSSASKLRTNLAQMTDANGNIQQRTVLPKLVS
Method: as §1, §2, §3, §4, §5, §6, §7

CLK3 = biological target: T8, CLK3 (Homo sapiens, UniProt P49761); assay: Radiometric protein kinase assay (33PanQinase Activity Assay), CLK3; conditions: read-out: IC50 on CLK3 (most potent CLK3 inhibitors)
T8 construct: GST-fusion or His-tag (not specified per kinase); purchased ProQinase GmbH; host or cells: Sf9 insect cells or E. coli (not specified per kinase)
T8 sequence (P49761 whole entry, the tested form may be a part): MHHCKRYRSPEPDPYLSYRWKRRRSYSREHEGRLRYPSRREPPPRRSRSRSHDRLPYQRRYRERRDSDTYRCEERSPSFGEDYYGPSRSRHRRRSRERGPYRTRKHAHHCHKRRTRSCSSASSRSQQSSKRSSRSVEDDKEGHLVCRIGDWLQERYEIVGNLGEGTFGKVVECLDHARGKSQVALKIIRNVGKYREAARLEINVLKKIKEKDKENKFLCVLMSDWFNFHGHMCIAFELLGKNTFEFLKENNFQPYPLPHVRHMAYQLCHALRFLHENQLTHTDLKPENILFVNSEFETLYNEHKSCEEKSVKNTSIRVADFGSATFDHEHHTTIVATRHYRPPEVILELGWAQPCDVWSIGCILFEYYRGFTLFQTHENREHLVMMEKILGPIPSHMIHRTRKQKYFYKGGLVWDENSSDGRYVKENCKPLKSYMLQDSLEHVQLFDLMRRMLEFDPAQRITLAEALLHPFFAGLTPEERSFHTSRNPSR
Method: as §1, §2, §3, §4, §5, §6, §7

[1] = IC50 class A to E, read-out: Potency Class DYRK1A
[2] = class by IC50 on DYRK1A, from dose-response curves, read-out: Potency Class DYRK1A
[3] = read-out: IC50 on DYRK1A (most potent DYRK1A inhibitors)
[4] = class by IC50 on CLK1, from dose-response curves

IC50 (CLK2) [nM] | IC50 (DYRK1A; [1]) | IC50 (DYRK1A; [2]) [nM] | Selectivity Class DYRK1A vs. CLK1 (DYRK1A) | Selectivity Class DYRK1A vs. DYRK1B (DYRK1A) | IC50 (DYRK1A; [3]) [nM] | IC50 (DYRK3) [nM] | IC50 (CLK1; IC50 class A to E) [nM] | IC50 (CLK1; [4]) [nM] | IC50 (DYRK1B) [nM] | IC50 (CLK4) [nM] | IC50 (DYRK2) [nM] | IC50 (CLK3) [nM] | Structure (SMILES)
≤ 100 | 10 to 25 nM and 5 to 10 nM | 10 to 25 | II (ratio between 2 and 10 fold) | III (ratio between 0.5 and 2 fold) | ≤ 10 | ≤ 250 | 10 to 25 | 10 to 25 | – | – | – | – | O=C1NC(NC23CC4CC(CC(C4)C2)C3)=N/C1=C\c1ccc2ncccc2c1 [Compound 49, (4Z)-2-(1-adamantylamino)-4-(6-quinolylmethylene)-1H-imidazol-5-one]
≤ 100 | ≤ 5 nM | < 5 | II (ratio between 2 and 10 fold) | II (ratio between 2 and 10 fold) | ≤ 10 | ≤ 250 | 10 to 25 | 10 to 25 | ≤ 10 | ≤ 10 | ≤ 250 | – | COC[C@H](NC1=N/C(=C\c2ccc3ncncc3c2)C(=O)N1)c1ccccc1 [Compound 69, (4Z)-2-[[(1R)-2-methoxy-1-phenyl-ethyl]amino]-4-(quinazolin-6-ylmethylene)-1H-imidazol-5-one]
– | – | 10 to 25 | III (ratio between 0.5 and 2 fold) | II (ratio between 2 and 10 fold) | – | – | – | 25 to 50 | – | – | – | ≤ 500 | O=C1NC(NC2CCCCCC2)=N/C1=C\c1ccc2ncccc2n1 [Compound 80, (4Z)-2-(cycloheptylamino)-4-(1,5-naphthyridin-2-ylmethylene)-1H-imidazol-5-one]

The remaining lines, values behind:

Structure (SMILES) | IC50 (CLK2) [nM] | IC50 (DYRK1A; [1]) | IC50 (DYRK1A; [2]) [nM] | Selectivity Class DYRK1A vs. CLK1 (DYRK1A) | Selectivity Class DYRK1A vs. DYRK1B (DYRK1A) | IC50 (DYRK1A; [3]) [nM] | IC50 (DYRK3) [nM] | IC50 (CLK1; IC50 class A to E) [nM] | IC50 (CLK1; [4]) [nM] | IC50 (DYRK1B) [nM] | IC50 (CLK4) [nM] | IC50 (DYRK2) [nM] | IC50 (CLK3) [nM]
O=C1NC(NC23CC4CC(CC(C4)C2)C3)=N/C1=C\c1ccc2cnccc2c1 [Compound 61, (4Z)-2-(1-adamantylamino)-4-(6-isoquinolylmethylene)-1H-imidazol-5-one] | ≤ 100 | – | 25 to 50 | III (ratio between 0.5 and 2 fold) | III (ratio between 0.5 and 2 fold) | – | ≤ 250 | – | 25 to 50 | – | – | – | –
CN1C(=O)/C(=C/c2ccc3cnccc3c2)N=C1NC1CCCCCC1 [Compound 87, (5Z)-2-(Cycloheptylamino)-3-methyl-5-(isoquinolin-6-ylmethylene)imidazol-4-one] | – | – | > 50 | IV (ratio between 0.1 and 0.5 fold) | IV (ratio between 0.1 and 0.5 fold) | – | ≤ 250 | – | > 50 | – | – | ≤ 250 | –

From patent publication US20250340538A1, “IMIDAZOLONE DERIVATIVES AS INHIBITORS OF PROTEIN KINASES IN PARTICULAR DYRK1A, CLK1 AND/OR CLK4” (PERHA PHARMACEUTICALS, priority 2021, published 2025)
